The target of one experiment is CDK6/cyclin D1 (Homo sapiens, UniProt Q00534). Kind of experiment: Inhibition of CDK6/cyclin D1 (unknown origin). The experiment is classed as protein-complex assay.
Experiment [1] deals with Cyclin-dependent kinase 4/cyclin D1 (Homo sapiens, UniProt P11802). The experiment in a line: Inhibition of CDK4/cyclin D1 (unknown origin). The experiment is classed as protein-complex assay.
A short description of experiment [2]: Inhibition of CDK1/cyclin B (unknown origin). The arrangement: species or system Homo sapiens.
Experiment [3] deals with MDA-MB-231. Kind of experiment: Antiproliferative activity against human MDA-MB-231 cells assessed as growth inhibition by CCK-8 assay. The experiment is classed as functional, cell-based.
Experiment [4] deals with HCT-116. Kind of experiment: Antiproliferative activity against human HCT-116 cells assessed as growth inhibition by CCK-8 assay. The experiment is classed as functional, cell-based. Background: Formazan colour is commonly taken as a measure of viable cells.
A further experiment addresses CDK7/Cyclin H/MNAT1 (Homo sapiens, UniProt P50613). Kind of experiment: Inhibition of CDK7/cyclin H/MAT1 (unknown origin). The experiment is classed as protein-complex assay.
The target of experiment [5] is Cyclin-dependent kinase 2/cyclin E1 (Homo sapiens, UniProt P24941). The experiment in a line: Inhibition of CDK2/cyclin E1 (unknown origin). The experiment is classed as protein-complex assay.
For another experiment, the system named is A549. The experiment in a line: Antiproliferative activity against human A549 cells assessed as growth inhibition by CCK-8 assay. The experiment is classed as functional, cell-based.
Experiment [6] deals with HT-29. The experiment in a line: Antiproliferative activity against human HT-29 cells assessed as growth inhibition by CCK-8 assay. The experiment is classed as functional, cell-based.
In the next experiment the target is CDK9/cyclin T1 (Homo sapiens, UniProt P50750). The experiment in a line: Inhibition of CDK9/cyclin T1 (unknown origin). The experiment is classed as protein-complex assay.
Experiment [7] relates to HCT-116. Kind of experiment: Induction of apoptosis in human HCT-116 cells assessed as early apoptotic cells at 1 uM by flow cytometry (Rvb=6.90%). The experiment is classed as functional. In general terms: Flow cytometry measures light scatter and fluorescence of single cells or particles in a stream.
For experiment [8], the system named is MDA-MB-231. Kind of experiment: Induction of apoptosis in human MDA-MB-231 cells assessed as viable cells at 1 uM by flow cytometry (Rvb=92.08%). The experiment is classed as functional. The conditions noted are these: read-out: Activity.
Experiment [9] has as its system MDA-MB-231. The experiment in a line: Induction of apoptosis in human MDA-MB-231 cells assessed as necrotic cells at 1 uM by flow cytometry (Rvb=4.37%). The experiment is classed as functional.
Experiment [10] deals with HT-29. The experiment in a line: Induction of apoptosis in human HT-29 cells assessed as viable cells at 1 uM by flow cytometry (Rvb=83.94%). Conditions: read-out: Activity. The experiment is classed as functional.
Experiment [11] deals with HCT-116. The experiment in a line: Induction of apoptosis in human HCT-116 cells assessed as late apoptotic cells at 5 uM by flow cytometry (Rvb=4.92%). The experiment is classed as functional.
The subject of experiment [12] is MDA-MB-231. Kind of experiment: Induction of apoptosis in human MDA-MB-231 cells assessed as early apoptotic cells at 5 uM by flow cytometry (Rvb=2.93%). The experiment is classed as functional.
Experiment [13] has as its system HCT-116. The experiment in a line: Induction of apoptosis in human HCT-116 cells assessed as necrotic cells at 5 uM by flow cytometry (Rvb=1.57%). The experiment is classed as functional.
For experiment [14], the system named is MDA-MB-231. Kind of experiment: Induction of apoptosis in human MDA-MB-231 cells assessed as late apoptotic cells at 5 uM by flow cytometry (Rvb=0.72%). The experiment is classed as functional.
Experiment [15] deals with HT-29. The experiment in a line: Induction of apoptosis in human HT-29 cells assessed as late apoptotic cells at 5 uM by flow cytometry (Rvb=5.03%). The experiment is classed as functional.
Experiment [16] concerns MDA-MB-231. Kind of experiment: Induction of apoptosis in human MDA-MB-231 cells assessed as viable cells at 5 uM by flow cytometry (Rvb=92.08%). Conditions: read-out: Activity. The experiment is classed as functional.
Experiment [17] concerns MDA-MB-231. The experiment in a line: Induction of apoptosis in human MDA-MB-231 cells assessed as necrotic cells at 5 uM by flow cytometry (Rvb=4.37%). The experiment is classed as functional.
Experiment [18] relates to MDA-MB-231. Kind of experiment: Induction of apoptosis in human MDA-MB-231 cells assessed as late apoptotic cells at 1 uM by flow cytometry (Rvb=0.72%). The experiment is classed as functional.
For experiment [19], the system named is HCT-116. Kind of experiment: Induction of apoptosis in human HCT-116 cells assessed as early apoptotic cells at 5 uM by flow cytometry (Rvb=6.90%). The experiment is classed as functional.
Experiment [20] deals with HT-29. The experiment in a line: Induction of apoptosis in human HT-29 cells assessed as late apoptotic cells at 1 uM by flow cytometry (Rvb=5.03%). The experiment is classed as functional.
For experiment [21], the system named is MDA-MB-231. Kind of experiment: Induction of apoptosis in human MDA-MB-231 cells assessed as early apoptotic cells at 1 uM by flow cytometry (Rvb=2.93%). The experiment is classed as functional.
Experiment [22] has as its system HT-29. The experiment in a line: Induction of apoptosis in human HT-29 cells assessed as necrotic cells at 5 uM by flow cytometry (Rvb=2.35%). The experiment is classed as functional.
For experiment [23], the system named is HT-29. The experiment in a line: Induction of apoptosis in human HT-29 cells assessed as necrotic cells at 1 uM by flow cytometry (Rvb=2.35%). The experiment is classed as functional.
For experiment [24], the system named is HCT-116. Kind of experiment: Induction of apoptosis in human HCT-116 cells assessed as necrotic cells at 1 uM by flow cytometry (Rvb=1.57%). The experiment is classed as functional.
For experiment [25], the system named is HCT-116. Kind of experiment: Induction of apoptosis in human HCT-116 cells assessed as late apoptotic cells at 1 uM by flow cytometry (Rvb=4.92%). The experiment is classed as functional.
The test system of experiment [26] is HT-29. The experiment in a line: Induction of apoptosis in human HT-29 cells assessed as viable cells at 5 uM by flow cytometry (Rvb=83.94%). Conditions: read-out: Activity. The experiment is classed as functional.
In experiment [27] the test system is HCT-116. The experiment in a line: Induction of apoptosis in human HCT-116 cells assessed as viable cells at 5 uM by flow cytometry (Rvb=86.61%). The experiment is classed as functional. The conditions noted are these: read-out: Activity.
In experiment [28] the test system is HCT-116. The experiment in a line: Induction of apoptosis in human HCT-116 cells assessed as viable cells at 1 uM by flow cytometry (Rvb=86.61%). Conditions: read-out: Activity. The experiment is classed as functional.
In experiment [29] the test system is HT-29. Kind of experiment: Induction of apoptosis in human HT-29 cells assessed as early apoptotic cells at 5 uM by flow cytometry (Rvb=8.68%). The experiment is classed as functional.
Experiment [30] relates to HT-29. The experiment in a line: Induction of apoptosis in human HT-29 cells assessed as early apoptotic cells at 1 uM by flow cytometry (Rvb=8.68%). The experiment is classed as functional.

The structures appear in SMILES notation.

CDK6/cyclin D1, sequence (P24385 whole entry): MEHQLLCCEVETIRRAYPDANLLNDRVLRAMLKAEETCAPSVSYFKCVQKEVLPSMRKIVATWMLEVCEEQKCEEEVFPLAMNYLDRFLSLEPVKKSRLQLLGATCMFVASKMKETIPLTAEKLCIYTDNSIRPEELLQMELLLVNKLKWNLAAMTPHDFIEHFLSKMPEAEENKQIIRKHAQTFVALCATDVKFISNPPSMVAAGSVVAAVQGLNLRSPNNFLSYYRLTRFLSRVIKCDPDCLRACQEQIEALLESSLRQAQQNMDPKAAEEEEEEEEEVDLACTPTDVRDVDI
CDK6/cyclin D1, sequence (Q00534 whole entry): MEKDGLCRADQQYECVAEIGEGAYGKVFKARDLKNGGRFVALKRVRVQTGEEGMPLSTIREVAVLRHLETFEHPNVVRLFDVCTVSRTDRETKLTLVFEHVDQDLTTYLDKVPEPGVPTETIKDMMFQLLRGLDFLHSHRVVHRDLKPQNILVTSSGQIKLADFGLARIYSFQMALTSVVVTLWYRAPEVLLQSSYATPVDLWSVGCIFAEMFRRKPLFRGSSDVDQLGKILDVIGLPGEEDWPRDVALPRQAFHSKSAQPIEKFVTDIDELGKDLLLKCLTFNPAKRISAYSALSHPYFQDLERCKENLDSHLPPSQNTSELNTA
Cyclin-dependent kinase 4/cyclin D1, sequence (P11802 whole entry): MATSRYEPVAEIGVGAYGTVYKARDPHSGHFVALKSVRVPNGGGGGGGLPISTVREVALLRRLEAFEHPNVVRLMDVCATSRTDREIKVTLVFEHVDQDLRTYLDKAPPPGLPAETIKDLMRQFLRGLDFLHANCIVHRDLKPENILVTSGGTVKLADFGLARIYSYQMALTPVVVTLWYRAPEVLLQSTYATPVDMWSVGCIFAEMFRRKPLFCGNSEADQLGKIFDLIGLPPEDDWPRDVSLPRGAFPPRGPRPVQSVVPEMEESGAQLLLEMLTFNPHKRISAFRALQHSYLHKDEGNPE
Cyclin-dependent kinase 4/cyclin D1, sequence (P24385 whole entry, further chain): as the sequence (P24385 whole entry) above
CDK9/cyclin T1, sequence (O60563 whole entry): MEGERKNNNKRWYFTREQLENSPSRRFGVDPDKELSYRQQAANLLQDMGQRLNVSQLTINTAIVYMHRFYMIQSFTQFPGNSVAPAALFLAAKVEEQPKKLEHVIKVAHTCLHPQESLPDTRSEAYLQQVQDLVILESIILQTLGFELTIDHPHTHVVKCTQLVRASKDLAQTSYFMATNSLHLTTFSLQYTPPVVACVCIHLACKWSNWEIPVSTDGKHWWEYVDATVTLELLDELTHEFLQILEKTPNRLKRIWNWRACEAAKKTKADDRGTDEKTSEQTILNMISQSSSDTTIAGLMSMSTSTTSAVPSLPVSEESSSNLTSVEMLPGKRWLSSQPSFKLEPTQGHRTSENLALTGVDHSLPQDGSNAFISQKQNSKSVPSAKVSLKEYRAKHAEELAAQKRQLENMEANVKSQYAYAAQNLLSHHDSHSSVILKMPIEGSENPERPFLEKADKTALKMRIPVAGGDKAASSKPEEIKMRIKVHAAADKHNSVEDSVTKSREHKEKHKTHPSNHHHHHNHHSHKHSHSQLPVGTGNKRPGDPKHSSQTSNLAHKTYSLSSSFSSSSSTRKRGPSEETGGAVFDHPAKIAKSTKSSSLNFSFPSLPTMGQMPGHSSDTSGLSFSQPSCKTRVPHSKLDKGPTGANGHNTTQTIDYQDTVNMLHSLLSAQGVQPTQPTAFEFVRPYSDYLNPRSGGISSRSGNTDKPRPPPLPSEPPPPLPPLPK
CDK9/cyclin T1, sequence (P50750 whole entry): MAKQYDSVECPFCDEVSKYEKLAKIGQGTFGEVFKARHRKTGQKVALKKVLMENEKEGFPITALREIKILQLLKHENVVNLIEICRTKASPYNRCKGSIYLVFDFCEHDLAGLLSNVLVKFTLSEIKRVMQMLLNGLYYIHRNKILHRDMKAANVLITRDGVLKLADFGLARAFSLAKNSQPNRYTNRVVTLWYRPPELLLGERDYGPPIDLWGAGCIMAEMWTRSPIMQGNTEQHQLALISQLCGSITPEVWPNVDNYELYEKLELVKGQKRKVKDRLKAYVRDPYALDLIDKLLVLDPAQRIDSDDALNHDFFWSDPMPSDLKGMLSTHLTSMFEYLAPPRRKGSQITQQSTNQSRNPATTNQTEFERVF
CDK7/Cyclin H/MNAT1, sequence (P51946 whole entry): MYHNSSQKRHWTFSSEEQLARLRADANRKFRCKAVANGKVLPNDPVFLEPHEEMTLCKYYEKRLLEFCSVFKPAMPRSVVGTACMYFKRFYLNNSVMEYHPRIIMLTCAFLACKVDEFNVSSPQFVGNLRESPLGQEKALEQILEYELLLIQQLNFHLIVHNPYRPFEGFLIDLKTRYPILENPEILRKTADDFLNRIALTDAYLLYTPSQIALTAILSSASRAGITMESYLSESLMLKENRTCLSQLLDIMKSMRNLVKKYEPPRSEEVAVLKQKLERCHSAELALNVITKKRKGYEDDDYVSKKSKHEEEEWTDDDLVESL
CDK7/Cyclin H/MNAT1, sequence (P50613 whole entry): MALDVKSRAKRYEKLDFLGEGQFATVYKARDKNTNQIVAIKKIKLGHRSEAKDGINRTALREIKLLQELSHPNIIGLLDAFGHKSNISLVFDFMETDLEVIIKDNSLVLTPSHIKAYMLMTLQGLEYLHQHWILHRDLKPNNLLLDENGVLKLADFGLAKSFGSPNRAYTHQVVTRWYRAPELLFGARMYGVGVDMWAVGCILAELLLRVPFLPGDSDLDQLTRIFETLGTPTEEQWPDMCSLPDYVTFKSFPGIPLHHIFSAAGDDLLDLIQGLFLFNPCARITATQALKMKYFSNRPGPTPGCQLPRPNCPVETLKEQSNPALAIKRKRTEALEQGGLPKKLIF
CDK7/Cyclin H/MNAT1, sequence (P51948 whole entry, further chain): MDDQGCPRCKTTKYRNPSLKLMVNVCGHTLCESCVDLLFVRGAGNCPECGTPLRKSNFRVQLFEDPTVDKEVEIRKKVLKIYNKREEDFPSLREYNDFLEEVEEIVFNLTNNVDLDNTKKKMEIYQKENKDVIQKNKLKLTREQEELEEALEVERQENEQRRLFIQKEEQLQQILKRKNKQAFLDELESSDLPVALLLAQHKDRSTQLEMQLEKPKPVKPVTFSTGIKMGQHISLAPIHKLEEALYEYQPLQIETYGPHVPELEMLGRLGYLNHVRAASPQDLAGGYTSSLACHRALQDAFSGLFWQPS

As to `COc1cc(N2CCN(C)CC2)ccc1Nc1ncc2nc(C(C)=O)c(=O)n(C3CCCC3)c2n1`, the IC50 (usually the point on the concentration scale where inhibition reaches its midpoint) at CDK6/cyclin D1 amounted to 4740 nM; in experiment [1] it was 4480 nM.
Take `CC(=O)c1nc2cnc(Nc3ccc(N4CCCC4)cc3)nc2n(C2CCCC2)c1=O`: the IC50 is more than 10000 nM at CDK6/cyclin D1 and 368 nM in [1].
Take `CCN1CCN(c2ccc(Nc3ncc4nc(-c5ccco5)c(=O)n(C5CCCC5)c4n3)cc2)CC1`: the 50% inhibitory concentration (IC50) was determined as 940 nM on CDK6/cyclin D1 and 236 nM in [1].
With `CC(=O)c1nc2cnc(Nc3ccc(N4CCCCC4)cc3)nc2n(C2CCCC2)c1=O`, the IC50 stood at 564 nM at CDK6/cyclin D1 and 64.9 nM in experiment [1].
For `O=c1c(-c2ccco2)nc2cnc(Nc3ccc(N4CCOCC4)cc3)nc2n1C1CCCC1` the same measures were more than 10000 nM and more than 10000 nM.
Compound `CN[C@@H]1C[C@H]2O[C@@](C)([C@@H]1OC)n1c3ccccc3c3c4c(c5c6ccccc6n2c5c31)C(=O)NC4` [STAUROSPORINE] had an IC50 in experiment [2] of 6.6 nM.
Turning to `CCN1CCN(c2ccc(Nc3ncc4nc(C(C)=O)c(=O)n(C5CCCC5)c4n3)c(CO)c2)CC1`, the IC50 at CDK6/cyclin D1 amounted to 1210 nM; in [1], 110 nM.
For the compound `CC(=O)c1nc2cnc(Nc3ccc(N4CCN(C)CC4)cc3)nc2n(C2CCCC2)c1=O`, the IC50 was 2200 nM with MDA-MB-231 [3]; more than 10000 nM in experiment [2]; 2400 nM with HCT-116 [4]; more than 10000 nM against CDK7/Cyclin H/MNAT1; more than 10000 nM in experiment [5]; 53.4 nM at CDK6/cyclin D1. The half-maximal inhibitory concentration (IC50) in [1] was 36.6 nM; with A549, 3600 nM; in the experiment on HT-29 [6], 1500 nM; against CDK9/cyclin T1, more than 10000 nM.
For `CC(=O)c1c(C)c2cnc(Nc3ccc(N4CCNCC4)cn3)nc2n(C2CCCC2)c1=O` [PALBOCICLIB], the figures for the IC50 with HCT-116 [4], with A549 and with HT-29 [6] were more than 10000 nM, more than 10000 nM and 9300 nM, respectively.
`CC(=O)c1nc2cnc(Nc3ccc(N4CCN(C5CCCC5)CC4)cc3)nc2n(C2CCCC2)c1=O`: the IC50 at CDK6/cyclin D1 was 138 nM; in experiment [1], 36.3 nM.
Consider `CC(=O)c1nc2cnc(Nc3ccc(N4CCOCC4)cc3)nc2n(C2CCCC2)c1=O`, for which the IC50 amounted to 168 nM against CDK6/cyclin D1 and 74.4 nM in experiment [1].
For `CCN1CCN(c2ccc(Nc3ncc4nc(C(C)=O)c(=O)n(C5CCCC5)c4n3)c(N)c2)CC1`, the IC50 amounted to 7080 nM against CDK6/cyclin D1 and 7890 nM in experiment [1].
As for `CC(=O)c1nc2cnc(Nc3ccc(N4CCC(N5CCN(C)CC5)CC4)cc3)nc2n(C2CCCC2)c1=O`, the figures for the IC50 (against CDK6/cyclin D1; in experiment [1]) were 48 nM and 30.1 nM, respectively.
For `CCN1CCN(c2ccc(Nc3ncc4nc(C(C)=O)c(=O)n(C5CCCC5)c4n3)cc2)CC1`, the IC50 with MDA-MB-231 [3] is 1900 nM; in experiment [2], more than 10000 nM; with HCT-116 [4], 1900 nM; at CDK7/Cyclin H/MNAT1, more than 10000 nM; in experiment [5] it was 7940 nM; against CDK6/cyclin D1, 30.5 nM. In addition, the IC50 came out at 16.7 nM in experiment [1], 9200 nM in the experiment on A549, 4000 nM in the experiment with HT-29 [6] and 8040 nM against CDK9/cyclin T1. Besides, the Activity in the experiment with HCT-116 [7] was 9.54%; in the experiment with MDA-MB-231 [9] it was 4.16%; with HCT-116 [11], 13.39%; in the experiment on MDA-MB-231 [12], 6.67%; in the experiment with HCT-116 [13], 2.16%; in the experiment on MDA-MB-231 [14], 1.75%. Also, the Activity with HT-29 [15] is reported as 15.42%; with MDA-MB-231 [17], 3.55%; in the experiment on MDA-MB-231 [18], 0.86%; with HCT-116 [19], 14.39%; with HT-29 [20], 12.67%; in the experiment with MDA-MB-231 [21], 3.21%. Also, the Activity in the experiment with HT-29 [22] stood at 0.99%; with HT-29 [23], 1.21%; in the experiment on HCT-116 [24], 0.57%; in the experiment with HCT-116 [25] it was 8.42%; with HT-29 [29], 14.86%; in the experiment with HT-29 [30], 15.39%. Besides, the viability at 1 µM in the experiment with MDA-MB-231 [8] was found to be 91.8%; in the experiment with HT-29 [10], 70.7%; in the experiment with HCT-116 [28] it was 81.5%. For the same compound, the viability at 5 µM with MDA-MB-231 [16] is 88%; in the experiment on HT-29 [26], 68.7%; in the experiment with HCT-116 [27], 70.2%.

(Values after ChEMBL document CHEMBL5214938, “Design, synthesis and biological evaluation of pteridine-7(8H)-one derivatives as potent and selective CDK4/6 inhibitors” (Bioorg Med Chem Lett, 2022).)
